Drawing on BindingDB's records for doi:10.1021/acs.jmedchem.8b00435 (Shanghaitech University, 2018), this text covers EC50 for four compounds.

This assay is described as follows: Agonist activity at adenosine A3 receptor (unknown origin) expressed in serum starved CHO cells assessed as increase in cell survival after 24 hrs by propidium iodide staining-based assay.
As a reminder, the EC50 is the concentration that produces a half-maximal response. On to `CNC(=O)[C@@]12C[C@@H]1[C@@H](n1cnc3c(NCc4cccc(Cl)c4)nc(C#Cc4cc5cccc6ccc7cccc4c7c65)nc31)[C@H](O)[C@@H]2O`, for which the EC50 worked out at 20 nM.

In the case of `CNC(=O)[C@@]12C[C@@H]1[C@@H](n1cnc3c(NCc4cccc(Cl)c4)nc(C#Cc4ccc(-c5ccccc5)cc4)nc31)[C@H](O)[C@@H]2O`, the concentration giving a half-maximal response (EC50) is 0.251 nM.

Turning to `CNC(=O)[C@@]12C[C@@H]1[C@@H](n1cnc3c(NCc4cccc(Cl)c4)nc(C#Cc4ccccc4)nc31)[C@H](O)[C@@H]2O`, the EC50 turned out to be 0.2 nM.

For the compound `CNC(=O)[C@@]12C[C@@H]1[C@@H](n1cnc3c(NCc4cccc(Cl)c4)nc(C#Cc4ccc5ccc6cccc7ccc4c5c67)nc31)[C@H](O)[C@@H]2O`, the EC50 came out at 13 nM.
